Data: patent US12643871B2, “Aryl formamide compound containing chiral sulfur oxide or salt thereof, preparation method, herbicidal composition and use thereof” (Qingdao Kingagroot Chemical Compound Co., Ltd., priority 2019, dated 2026)

How the values were obtained:
Test in all cases: Weeding effect in post-emergence stage
Assay type in all cases: in vivo
Conditions in all cases: 250 g/ha; 2 leaf stage; 15 days after application; fresh weight control rate
Amaranthus retroflexus = system: Amaranthus retroflexus
Text: (§1) The activity level criteria for harmful plant damage (i.e., growth control rate) are as follows: • Level 5: growth control rate is above 85%; • Level 4: growth control rate is greater than or equal to 60% and less than 85%; • Level 3: growth control rate is greater than or equal to 40% and less than 60%; • Level 2: growth control rate is greater than or equal to 20% and less than 40%; • Level 1: growth control rate is greater than or equal to 5% and less than 20%; • Level 0: growth control rate is less than 5%.
(§2) The above growth control rates are fresh weight control rates.
(§3) Experiment on weeding effect in post-emergence stage: monocotyledonous and dicotyledonous weed seeds (Descurainia sophia, Capsella bursa-pastoris, Galium aparine, Stellaria media, Lithospermum arvense, Rorippa indica, Alopecurus aequalis, Beckmannia syzigachne, Sclerochloa dura, Phleum paniculatum, Bromus japonicus, Aegilops tauschii, Phalaris arundinacea, Amaranthus retroflexus, Chenopodiaceae, Commelina communis, Sonchus arvensis, convolvulus arvensis, Cirsium setosum, Solanum nigrum, Acalypha australis, Digitaria sanguinalis, Echinochloa crusgalli, Setaria viridis, Setaria glauca, Leptochloa chinensis, Monochoria vaginalis, Sagittaria trifolia, Scirpus juncoides, Cyperus rotundus, Cyperus iria, Cyperus difformis, Fimbristylis, Portulaca oleracea, Xanthium sibiricum, Pharbitis nil) and major crop seeds (wheat, corn, rice, soybean, cotton, oilseed rape, millet, sorghum, potato, sesame, ricinus) were placed in plastic pots filled with soil, then covered with 0.5-2 cm of soil, allowed to grow in a good greenhouse environment. After 2 weeks of sowing, the test plants were treated in the 2 leaf stage. The tested compounds of the present invention were respectively dissolved in acetone, then added with Tween 80 and 1.5 liter/ha of emulsifiable concentrate of methyl oleate as synergist, diluted with a certain amount of water to obtain a solution with a certain concentration, and sprayed with a spray tower onto the plants. After the application, the plants were cultured for 15 days in the greenhouse, and then the experimental results of the weeding were counted. The doses of the used compounds were 500, 250, 125, 60, 30, 15 g/ha, and the averages were obtained by repeating for three times.

Digitaria sanguinalis = system: Digitaria sanguinalis
Text: as §1, §2, §3

Echinochloa crusgali = system: Echinochloa crusgali
Text: as §1, §2, §3

| Compound | weeding effect in post-emergence stage, activity level (growth control rate), Amaranthus retroflexus (Amaranthus retroflexus) | weeding effect in post-emergence stage, activity level (growth control rate), Digitaria sanguinalis (Digitaria sanguinalis) | weeding effect in post-emergence stage, activity level (growth control rate), Echinochloa crusgali (Echinochloa crusgali) |
| --- | --- | --- | --- |
| Cc1c(C(=O)Nc2nnnn2C)ccc(S(C)(=O)=O)c1[S+]([O-])CC1CCC1 (stereo not drawn) [Compound 626] | 5 (Level 5: growth control rate is above 85%) | 5 (Level 5: growth control rate is above 85%) | 5 (Level 5: growth control rate is above 85%) |
| Cc1nnc(NC(=O)c2ccc(F)c([S@@+](C)[O-])c2F)o1 [Compound 623] | 5 (Level 5: growth control rate is above 85%) | 5 (Level 5: growth control rate is above 85%) | 5 (Level 5: growth control rate is above 85%) |
| Cc1c(C(=O)Nc2nnnn2C)ccc(S(C)(=O)=O)c1[S+]([O-])COC(=O)C(C)(C)C (stereo not drawn) [Compound 605] | 5 (Level 5: growth control rate is above 85%) | 5 (Level 5: growth control rate is above 85%) | 5 (Level 5: growth control rate is above 85%) |
| Cc1c(C(=O)Nc2nnnn2C)ccc(S(C)(=O)=O)c1[S@+]([O-])CC(C)O (stereo partly drawn) [Compound 620] | 5 (Level 5: growth control rate is above 85%) | 5 (Level 5: growth control rate is above 85%) | 5 (Level 5: growth control rate is above 85%) |
| Cc1c(C(=O)Nc2nnnn2C)ccc(S(C)(=O)=O)c1[S@+]([O-])CCC(C)(C)C [Compound 603] | 5 (Level 5: growth control rate is above 85%) | 5 (Level 5: growth control rate is above 85%) | 5 (Level 5: growth control rate is above 85%) |
| CSCCC[S@@+]([O-])c1c(C(F)(F)F)ccc(C(=O)Nc2nnc(C)o2)c1F [Compound 598] | 5 (Level 5: growth control rate is above 85%) | 5 (Level 5: growth control rate is above 85%) | 5 (Level 5: growth control rate is above 85%) |
| CSc1c(C(=O)Nc2nnnn2C)ccc(C(F)(F)F)c1[S@+]([O-])CCF [Compound 596] | 5 (Level 5: growth control rate is above 85%) | 5 (Level 5: growth control rate is above 85%) | 5 (Level 5: growth control rate is above 85%) |
| CC(=O)C[S@@+]([O-])c1c(S(C)(=O)=O)ccc(C(=O)Nc2nnnn2C)c1C [Compound 609] | 5 (Level 5: growth control rate is above 85%) | 5 (Level 5: growth control rate is above 85%) | 5 (Level 5: growth control rate is above 85%) |
| CCn1nnnc1NC(=O)c1ccc(S(C)(=O)=O)c([S@+]([O-])CC)c1C [Compound 629] | 5 (Level 5: growth control rate is above 85%) | 5 (Level 5: growth control rate is above 85%) | 5 (Level 5: growth control rate is above 85%) |
| C#CCC[S@@+]([O-])c1c(S(C)(=O)=O)ccc(C(=O)Nc2nnc(C)o2)c1C [Compound 624] | 5 (Level 5: growth control rate is above 85%) | 5 (Level 5: growth control rate is above 85%) | 5 (Level 5: growth control rate is above 85%) |
